# Results: PubChem BioAssay (NCI)
# Several values for one entry are separate records, joined by “and”; a condition that tells them apart may be missing. Equal values may be shown once.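 48-hour exposure; five concentrations; linearly interpolated endpoints. Abbreviation: GI50, concentration required for 50% inhibition of growth. Definition used: TGI = concentration required for complete inhibition of growth.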
# Assays:
# Experiment in all cases: inhibition of tumour cell growth, NCI panel, 48 h
# [1] = tested on: HOP-18 NSCLC
# [2] = tested on: TK-10 renal
# [3] = tested on: SK-MEL-28 melanoma
# [4] = tested on: RPMI-8226 leukemia
# [5] = tested on: SNB-78 CNS
# [6] = tested on: MOLT-4 leukemia
# [7] = tested on: HOP-92 NSCLC
# [8] = tested on: OVCAR-4 ovarian
# [9] = tested on: UACC-257 melanoma
# [10] = tested on: MDA-MB-231 breast
Compound,TGI [1] [µM],TGI [2] [µM],TGI [3] [µM],TGI [4] [µM],TGI [5] [µM],TGI [6] [µM],TGI [7],TGI [8],TGI [9] [µM],GI50 [1] [µM],GI50 [2] [µM],GI50 [3] [µM],GI50 [4] [µM],GI50 [5] [µM],GI50 [6] [µM],GI50 [7] [µM],GI50 [10] [µM],TGI [10] [µM],GI50 [8] [µM],GI50 [9] [µM]
BrC1=CC=C2NC=CC3=CC=NC1C32 (centres undefined),66.8,99.8,> 100,37.8,> 100,15.6,71.2 µM,97.3 µM,98.8,,,,,,,,,,,
N#CC(C(=O)/C(=N/N)C(C#N)c1ccccc1)c1ccccc1 (centres undefined),> 100,> 100,> 100,> 100,> 100,> 100,> 100 µM,> 100 µM,> 100,,,,,,,,,,,
Clc1cc(Cc2cc(Cl)c(Cl)c3c2OCOC3)c2c(c1Cl)COCO2,97.9,> 100,> 100,> 100,> 100,> 100,41.8 µM,43.9 µM,> 100,,,,,,,,,,,
N#Cc1c(NN)nc(NN)c(C#N)c1-c1ccccc1,> 100,> 100,> 100,> 100,> 100,> 100,> 100 µM,> 100 µM,> 100,,,,,,,,,,,
N[C@@H]1CCCC[C@H]1N.O=C([O-])C(=O)[O-].[Pt+4],> 100,74,24.2,> 91.2,> 100,15.6,> 74 µM,83.8 µM,> 81.1,34.3,21.2,2.63,0.0528,19.8,0.137,25.5,> 100,> 100,4.09,10.7
N#CC(C(=O)CCC(=O)C(C#N)c1ccccc1)c1ccccc1 (centres undefined),> 100,> 100,> 100,> 100,> 100,> 100,> 100 µM,> 100 µM,> 100,,,,,,,,,,,
CCOC(=O)N1CCc2cc(OC)c(OC)c3c2c1cc1cc(OC)c(OC)cc13,> 100,> 100,> 100,60.9,> 100,> 100,44.8 µM,> 95.3 µM,> 81.7,,,,,,,,,> 100,,
CCC1(c2c(F)c(F)c(N)c(F)c2F)CCC(=O)NC1=O (centres undefined),> 100,> 100,> 100,> 100,> 100,> 100,> 100 µM,> 100 µM,> 100,,,,,,,,,,,
CCOc1ccccc1NC(=O)CC1SC(=Nc2ccc([N+](=O)[O-])cc2)NC1=O (centres undefined),51.1,70.2,70,28.9,> 100,60.3,25.8 µM,29.8 µM,46.1,,,,,,,,,,,
Nc1ncnc2c1nc(Cl)n2C1OC2COP(=O)(O)OC2C1O (centres undefined),> 300,> 222,> 300,> 300,> 300,,229 µM and > 92.9 µM,204 µM and > 100 µM,> 300,,,,,,,,,> 300,,
Cc1cc2nc(CCC(=O)O)c(=O)[nH]c2cc1C,> 100,> 100,> 100,> 100,> 100,> 100,> 100 µM,> 100 µM,> 100,,,,,,,,,,,
CCCCCCCCCCCCCC(=O)CC(=O)c1c(O)cccc1O,> 100,> 100,> 100,72.4,75.5,52.7,89.7 µM,> 100 µM,85.3,,,,,,,,,,,
Oc1cc(O)c2c(-c3c(O)c(-c4ccc(O)c(O)c4)[o+]c4cc(O)cc(O)c34)c(O)c(-c3ccc(O)c(O)c3)[o+]c2c1,36.4,> 100,> 100,> 100,> 100,> 100,> 100 µM,> 100 µM,> 100,,,,,,,,,,,
